Data: patent publication US6372208B1, “Method of reducing an immune response to a recombinant virus” (The Trustees of the University of Pennsylvania, priority 1996, dated 2002)

Legend:
[1] = tested on: recombinant adenoviruses H5.010CBALP and H5.010CMVlacZ; test: Lung-directed adenovirus gene transfer and readministration, transgene expression by histochemistry (Example 2); assay type: in vivo, C57BL/6 mice
Experimental: Female C57BL/6 mice (6˜8 week old) were infected with suspensions of H5.010CBALP (1×10^9 pfu in 50 μl of PBS) via the trachea at day 0 and similarly with H5.010CMVlacZ at day 28. One group of such mice was used as a control. Another group of mice were acutely depleted of CD4^+ cells by i.p. injection of antibody to CD4^+ cells (GK1.5; ATCC No. TIB207, 1:10 dilution of ascites) at the time of the initial gene therapy (days −3, 0, and +3). A third group of mice was injected with IL-12 (1 μg intratracheal or 2 μg, i.p. injections) at the time of the first administration of virus (days 0 and +1). A fourth group of mice was injected with gamma interferon. (1 μg intratracheal or 2 μg, i.p. injections) at the time of the first administration of virus (days 0 and +1).
When mice were subsequently euthanized and necropsied at days 3, 28, or 31, lung tissues were prepared for cryosections, while bronchial alveolar lavage (BAL) and mediastinal lymph nodes (MLN) were harvested for immunological assays.
The lung tissues were evaluated for ALP expression at day 3 and day 28 by histochemical staining following the procedures of Yang I, cited above. β-galactosidase expression was assayed at day 31 by X-gal histochemical staining. The results described below were obtained from the alkaline phosphatase histochemical stains (magnification ×100) or β-galactosidase X-gal stains (magnification ×100).

HT-2 cells = test: IL-2/IL-4 in supernatants of virus-restimulated MLN lymphocytes, HT-2 cell 3H-thymidine incorporation; assay type: cell-based, C57BL/6 mice
Experimental: (§1) Lymphocytes from MLN of the control group and IL-12 treated group of C57BL/6 mice were harvested 28 days after administration of H5.010CBALP and restimulated in vitro with UV-inactivated H5.010CMVlacZ at 10 particles/cell for 24 hours. Cell-free supernatants were assayed for the presence of IL-2 or IL-4 on HT-2 cells (an IL-2 or IL-4-dependent cell line) [Yang I, cited above]. Presence of IFN-γ in the same lymphocyte culture supernatant was measured on L929 cells as described [Yang I, cited above]. Stimulation index (S.I.) was calculated by dividing ^3H-thymidine cpm incorporated into HT-2 cells cultured in supernatants of lymphocytes restimulated with virus by ^3H-thymidine cpm incorporated into HT-2 cells cultured in supernatants of lymphocytes incubated in antigen-free medium.

L929 cells = test: IFN-γ in the same lymphocyte culture supernatant measured on L929 cells; assay type: cell-based, C57BL/6 mice; conditions: MLN lymphocytes day 28, restimulated with virus
Experimental: as §1

[2] = tested on: adenovirus (H5.010CMVlacZ); test: Neutralizing antibody to adenovirus in serum; assay type: in vivo, C57BL/6 mice; conditions: IL-12 i.p., liver-directed
Text: Mice from each group were subsequently euthanized and liver tissues evaluated for lacZ expression by X-gal histochemistry (magnification ×100) at day 3 and day 28; and for ALP expression by histochemical staining at day 31 (magnification ×100). Development of neutralizing antibody to adenovirus in each group of mice was examined in serum samples obtained at day 28.
Serum samples were also collected at days 0, 3, 7, 14, 21, 28, 35 and 42 from each group of animals and assayed for neutralizing antibody titer. Serum samples were incubated at 56° C. for 30 minutes and then diluted in DMEM in twofold steps starting from 1:20. Each serum dilution (100 μl) was mixed with H5.010CMVlacZ (2×10^6 pfu in 20 μl), incubated for 1 hour at 37° C., and applied to 80% confluent Hela cells in 96-well plates (2×10^4 cells per well). After 60 minutes incubation at 37° C., 100 μl of DMEK containing 20% FBS were added to each well. Cells were fixed and stained for β-galactosidase expression on the following day. All of the cells stained blue in the absence of serum samples. […] FIGS. 3A-3D report the antibody titer expressed as a function of days post-infection.

H5.010CMVlacZ virus = test: Adenovirus-specific IgG1 and IgG2a in serum by ELISA; assay type: in vivo, C57BL/6 mice; conditions: 28 days after infection
Experimental: A. Serum samples obtained from the C57BL/6 mice (“B6”) and IL-12 treated C57BL/6 (“B6+IL12”) mice of Example 5 were tested 28 days after infection for adenovirus-specific IgG1 and IgG2a antibody isotypes.
A solid phase enzyme linked immunosorbent assay (ELISA) using purified H5.010CMVlacZ virus as antigen was performed. Immunolon-2-U microtiter plates (Fisher) were coated with 200 ng/well of viral antigen in […] of PBS for 6 hours at 37° C., washed three times in PBS, and blocked in PBS/1% BSA overnight at 4° C. The following day, 4-fold serial diluted serum samples were added to antigen-coated plates and incubated for 4 hours at 37° C. Plates were washed three times in PBS/1% BSA and incubated with goat anti-mouse IgG1-biotin or goat anti-mouse IgG2a-biotin (CALTAG Laboratories, San Francisco, Calif.) at 1:5000 dilution for 2 hours at 37° C. Plates were washed as above and Avidin-ALP (Sigma) was added to each well at 1:5000 dilution for 1 hour at 37° C. Wells were again washed as above and PNPP substrate was added. Optical densities were read on a Biorad model 450 microplate reader.

interleukin-12 [IL-12]
transgene expression after first administration of virus (ALP) ([1]; lung, intratracheal, days 3 and 28): diminished after about one month | gene transfer upon second administration of virus (lacZ) ([1]; lung, readministered day 28, read day 31): high level gene transfer to airway epithelial cells was achieved | inflammation and transgene persistence following a second administration of virus ([1]; treatment at the time of intratracheal instillation of virus): did not enhance inflammation or diminish transgene persistence | 3H-Thymidine Incorporation (cpm ± SD), Medium (HT-2 cells; MLN lymphocytes 28 days after H5.010CBALP, antigen-free medium): 247 ± 34 cpm | 3H-Thymidine Incorporation (cpm ± SD), H5.010CMVlacZ (HT-2 cells; MLN lymphocytes day 28, restimulated with UV-inactivated H5.010CMVlacZ 24 hours): 5203 ± 28 cpm | 3H-Thymidine Incorporation (cpm ± SD), H5.010CMVlacZ (HT-2 cells; as E2, with anti-IL2 (1:5000)): 776 ± 50 cpm | 3H-Thymidine Incorporation (cpm ± SD), H5.010CMVlacZ (HT-2 cells; as E2, with anti-IL4 (1:5000)): 4608 ± 52 cpm | ratio of IL-2/IL-4 (HT-2 cells; lymphocytes stimulated in vitro with virus, 3 without IL-12): 6 | S.I. (stimulation index) (HT-2 cells; virus restimulated / antigen-free medium): 21.07 | S.I. (stimulation index) (HT-2 cells; with anti-IL2 (1:5000)): 3.14 | S.I. (stimulation index) (HT-2 cells; with anti-IL4 (1:5000)): 18.66 | [formula] (column head not readable; IFN-γ in supernatant) (L929 cells): 160 | reduction in neutralizing antibody [2]: 3 fold | anti-viral IgG1 in serum (H5.010CMVlacZ virus): less anti-viral IgG1 | anti-viral IgG2a in serum (H5.010CMVlacZ virus): increased production of IgG2a
